Earlier results in patent publication US10583101B2 (EMCURE PHARMACEUTICALS LIMITED, priority 2016, dated 2020).

SMILES: O=NN(CCCl)C(=O)NCCCl [Carmustine, 1,3-bis (2-chloroethyl)-1-nitrosourea]
- solubility in alcohol and lipids (alcohol and lipids): highly soluble in alcohol and lipids
- solubility in water (water): poorly soluble in water
